The text below walks through data of patent publication US20260356851A1, “TRICYCLIC COMPOUNDS AND USES THEREOF” (HUTCHMED LIMITED, priority 2023, published 2026).

Holding throughout (assay type): cell-based
In experiment [1] the target is T1, pERK1/2 (Thr202/Tyr204), NCI-1H441 (KRAS G12V) (Homo sapiens, UniProt P01116, G12V).
T1 construct: pERK1/2 HTRF read-out
Briefly: Assay of intracellular pERK1/2 (Thr202/Tyr204) phosphorylation in NCI-H441 cells (KRAS G12V). Conditions: pERK1/2, 2 days, read-out: NCI-H441 (KRAS G12V) IC50. How it is done: (§1) Example 2: Assay of intracellular pERK1/2 (Thr202/Tyr204)phosphorylation
(§2) 1. Reagents and materials: • pERK1/2 (Thr202/Tyr2O4) HIRE kit, Cisbio, Cat #64ERKPEH; • OptiPlate™-384-well plate, PerkinElmer, Cat #6007299; • 96-well plate, Coming, Cat #353072; • Instrument: EnVision2104, PerkinElmer; • Cell lines: NCI-1H358 (KRAS G12C), ATCC, CRL-5807; PANC-1 (KRAS G121D), ATCC, CRL-1469; NCI-1H441 (KRAS G12V), ATCC, HTB-174.
(§3) 2. Preparation of Reaction Solutions
(§4) • A test compound was dissolved in DMSO, diluted to 200.0 μM and further diluted 3-fold to prepare a series of test compounds at concentrations of 66.7, 22.2, 7.4, 2.5, 0.82, 0.27, 0.09 μM etc. Then 10 μL of the compound at different dilution concentrations was added to 190 μL of a DMEM medium to prepare a 10× test compound; • 1× cell lysis buffer: 4× cell lysis stock solution (provided by the kit) was diluted 4-fold with deionized water, and then 10% 100× blocking stock solution (provided by the kit) was added thereto. • pERK1/2 detection solution (prepared just before use): the pERK1/2 d2 antibody (provided by the kit) and pERK1/2 Cryptate antibody (provided by the kit) were diluted with the detection solution (provided by the kit) at a ratio of 1:1:38.
(§5) • Cells were inoculated into a 96-well plate (100 μL/well) at a density of 10000-12000/well. No cell was inoculated into a negative control well, and only the cell medium was added at 100 μL/well. The plate was placed in a cell incubator at 5% CO2 and 37° C. overnight. • 10 μL of the 10× test compound was added to the 100 μL cell culture 96-well plate; both the positive control well (that is, the control hole without chemical compound treatment) and the negative control well were charged with 10 μL of a 5% DMSO culture solution; and the plate was cultured in a cell incubator at 5% CO2 and 37° C. for 2 days. • The medium in the 96-well plate was removed; 50 μL of the 1× cell lysis buffer was added to each of the wells; the plate was placed in a microplate shaker; and lysis under shaking was carried out at 900 rpm at room temperature for 1 hour. • 16 μL of the lysis buffer in the 96-well plate was taken and transferred to a 384-well plate, followed by centrifugation at 1000 rpm for 30 s; then 4 μL of pERK1/2 detection solution was added to each well, followed by centrifugation at 1000 rpm for 30 s; and the 384-well plate was sealed with a sealing membrane and incubated at 25° C. on a low-speed shaker at 100 rpm in the dark for 2 hours. • The fluorescence value (RFU) of each well was detected on EnVision2104, with an emission wavelength 1 being 665 nm and an emission wavelength 2 being 615 nm.
(§6) Fluorescence ratio=fluorescence value665 nm/fluorescence value615 nm
(§7) Inhibition rate (%)=100−((fluorescence ratio of compound well−fluorescence ratio of negative control well)/(fluorescence ratio of positive control well−fluorescence ratio of negative control well))×100
(§8) wherein: • the fluorescence ratio of compound well refers to the fluorescence ratio of the well containing the test compounds; • the fluorescence ratio of negative control well refers to the fluorescence ratio of the cell-free control well; • the fluorescence ratio of positive control well refers to the fluorescence ratio of the cell well treated with 0.5% DMSO.
(§9) IC50 value: obtained by calculation using XL-Fit 5.0 software.

In experiment [2] the target is T2, pERK1/2 (Thr202/Tyr204), NCI-1H358 (KRAS G12C) (Homo sapiens, UniProt P01116, G12C).
T2 construct: pERK1/2 HTRF read-out
T2 sequence (P01116 1-188 isoform P01116-2 G12C): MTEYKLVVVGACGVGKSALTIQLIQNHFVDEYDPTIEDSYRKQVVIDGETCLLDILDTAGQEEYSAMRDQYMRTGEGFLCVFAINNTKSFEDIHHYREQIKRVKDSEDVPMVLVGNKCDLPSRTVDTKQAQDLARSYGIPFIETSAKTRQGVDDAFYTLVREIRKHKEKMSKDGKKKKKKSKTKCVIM
Kind of experiment: Assay of intracellular pERK1/2 (Thr202/Tyr204) phosphorylation in NCI-H358 cells (KRAS G12C). Conditions: pERK1/2, 2 days, read-out: NCI-H358 (KRAS G12C) IC50. The method, then: as §1, §2, §3, §4, §5, §6, §7, §8, §9

For experiment [3], the target named is T3, pERK1/2 (Thr202/Tyr204), PANC-1 (KRAS G121D) (Homo sapiens, UniProt P01116, G12D).
T3 construct: pERK1/2 HTRF read-out
T3 sequence (P01116 1-188 isoform P01116-2 G12D): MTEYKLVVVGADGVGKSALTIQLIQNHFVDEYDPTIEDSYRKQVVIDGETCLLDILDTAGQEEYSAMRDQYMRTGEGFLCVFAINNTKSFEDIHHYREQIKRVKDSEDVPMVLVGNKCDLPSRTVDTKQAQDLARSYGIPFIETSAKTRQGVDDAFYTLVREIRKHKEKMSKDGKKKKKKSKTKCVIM
Kind of experiment: Assay of intracellular pERK1/2 (Thr202/Tyr204) phosphorylation in PANC-1 cells (KRAS G12D). Conditions: pERK1/2, 2 days, read-out: PANC-1 (KRAS G12D) IC50. How it is done:
as §1, §2, §3, §4, §5, §6, §7, §8, §9

The structures appear in SMILES notation.

T1 sequence (P01116 1-188 isoform P01116-2 G12V): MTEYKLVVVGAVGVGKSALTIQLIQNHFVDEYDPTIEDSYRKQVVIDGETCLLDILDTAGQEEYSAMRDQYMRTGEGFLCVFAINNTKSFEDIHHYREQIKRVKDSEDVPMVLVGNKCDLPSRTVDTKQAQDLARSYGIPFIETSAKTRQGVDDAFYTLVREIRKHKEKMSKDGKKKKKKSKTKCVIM

Consider `CC(c1cccnc1N)N1CCOc2nc(-c3cc(O)cc(F)c3C3CC3)c(F)c3nc(OC[C@@H]4CCCN4C)nc1c23` (single isomer, unassigned) [Compound 34, 3-(10-((R or S)-1-(2-aminopyridin-3-yl)ethyl)-4-fluoro-2-(((S)-1-methylpyrrolidin-2-yl)methoxy)-9,10-dihydro-8H-7-oxa-1,3,6,10-tetraazacyclohepta[de]naphthalen-5-yl)-4-cyclopropyl-5-fluorophenol], for which the IC50 in experiment [1], in experiment [2] and in experiment [3] was more than 1000 nM each time.

As to `CC(c1cccnc1N)N1CCOc2nc(-c3cc(O)cc(F)c3C3CC3)c(F)c3nc(OC[C@@H]4CCCN4C)nc1c23` (single isomer, unassigned) [Compound 35, 3-(10-((R or S)-1-(2-aminopyridin-3-yl)ethyl)-4-fluoro-2-(((S)-1-methylpyrrolidin-2-yl)methoxy)-9,10-dihydro-8H-7-oxa-1,3,6,10-tetraazacyclohepta[de]naphthalen-5-yl)-4-cyclopropyl-5-fluorophenol], the IC50 in experiment [1] is 37 nM; in experiment [2] it was 18 nM; in experiment [3], 399 nM.

As for `C[C@H](c1cccnc1N)N1CCOc2nc(-c3c(C(F)(F)F)ccc4[nH]ncc34)c(F)c3nc(OC[C@@H]4CCN4CC(F)F)nc1c23` (single isomer, unassigned) [Compound 38, 3-((1R or 1S)-1-(2-(((S)-1-(2,2-difluoroethyl)azetidin-2-yl)methoxy)-4-fluoro-5-(5-(trifluoromethyl)-1H-indazol-4-yl)-8,9-dihydro-10H-7-oxa-1,3,6,10-tetraazacyclohepta[de]naphthalen-10-yl)ethyl)pyridin-2-amine], the IC50 in experiment [1] was 643 nM; in experiment [2] it was 595 nM; in experiment [3], more than 1000 nM.

For `C[C@@H](c1cccnc1N)N1CCOc2nc(-c3c(C(F)(F)F)ccc4[nH]ncc34)c(F)c3nc(OC[C@@H]4CCN4CC(F)F)nc1c23` (single isomer, unassigned) [Compound 39, 3-((1R or 1S)-1-(2-(((S)-1-(2,2-difluoroethyl)azetidin-2-yl)methoxy)-4-fluoro-5-(5-(trifluoromethyl)-1H-indazol-4-yl)-8,9-dihydro-10H-7-oxa-1,3,6,10-tetraazacyclohepta[de]naphthalen-10-yl)ethyl)pyridin-2-amine], the IC50 in experiment [1] turned out to be 7 nM; in experiment [2], 2 nM; in experiment [3] it was 237 nM.

As for `CC(c1cccnc1N)N1CCOc2nc(-c3cc(O)cc4ccc(F)c(F)c34)c(F)c3nc(OC[C@@H]4CCCN4C)nc1c23` (single isomer, unassigned) [Compound 41, 4-(10-((R or S)-1-(2-aminopyridin-3-yl)ethyl)-4-fluoro-2-(((S)-1-methylpyrrolidin-2-yl)methoxy)-9,10-dihydro-8H-7-oxa-1,3,6,10-tetraazacyclohepta[de]naphthalen-5-yl)-5,6-difluoronaphthalen-2-ol], the IC50 in experiment [1] is 820 nM; in experiment [2] it was 223 nM; in experiment [3] it was more than 1000 nM.

In the case of `CC(c1cccnc1N)N1CCOc2nc(-c3cc(O)cc4ccc(F)c(F)c34)c(F)c3nc(OC[C@@H]4CCCN4C)nc1c23` (single isomer, unassigned) [Compound 42, 4-(10-((R or S)-1-(2-aminopyridin-3-yl)ethyl)-4-fluoro-2-(((S)-1-methylpyrrolidin-2-yl)methoxy)-9,10-dihydro-8H-7-oxa-1,3,6,10-tetraazacyclohepta[de]naphthalen-5-yl)-5,6-difluoronaphthalen-2-ol], the IC50 in experiment [1] was 5 nM; in experiment [2] it was 0.9 nM; in experiment [3], 69 nM.

For the molecule `CC(c1cccnc1N)N1CCOc2nc(-c3cc(O)cc(Cl)c3C3CC3)c(F)c3nc(OC[C@@]45CCCN4C[C@H](F)C5)nc1c23` (single isomer, unassigned) [Compound 43, 3-(10-((R or S)-1-(2-aminopyridin-3-yl)ethyl)-4-fluoro-2-(((2R,7aS)-2-fluorotetrahydro-1H-pyrrolizin-7a(5H)-yl)methoxy)-9,10-dihydro-8H-7-oxa-1,3,6,10-tetraazacyclohepta[de]naphthalen-5-yl)-5-chloro-4-cyclopropylphenol], the IC50 in experiment [1], in experiment [2] and in experiment [3] was more than 1000 nM in each case.

For `CC(c1cccnc1N)N1CCOc2nc(-c3cc(O)cc(Cl)c3C3CC3)c(F)c3nc(OC[C@@]45CCCN4C[C@H](F)C5)nc1c23` (single isomer, unassigned) [Compound 44, 3-(10-((R or S)-1-(2-aminopyridin-3-yl)ethyl)-4-fluoro-2-(((2R,7aS)-2-fluorotetrahydro-1H-pyrrolizin-7a(5H)-yl)methoxy)-9,10-dihydro-8H-7-oxa-1,3,6,10-tetraazacyclohepta[de]naphthalen-5-yl)-5-chloro-4-cyclopropylphenol], the IC50 in experiment [1] was found to be 0.6 nM; in experiment [2], 0.1 nM; in experiment [3], 3 nM.

As to `CC(c1cccnc1N)N1CCOc2nc(-c3cc(O)cc(F)c3C3CC3)c(F)c3nc(OC[C@@H]4CC(F)(F)CN4C)nc1c23` (single isomer, unassigned) [Compound 48, 3-(10-((R or S)-1-(2-aminopyridin-3-yl)ethyl)-2-(((S)-4,4-difluoro-1-methylpyrrolidin-2-yl)methoxy)-4-fluoro-9,10-dihydro-8H-7-oxa-1,3,6,10-tetraazacyclohepta[de]naphthalen-5-yl)-4-cyclopropyl-5-fluorophenol], the IC50 in experiment [1], in experiment [2] and in experiment [3] was more than 1000 nM throughout.

Take `CC(c1cccnc1N)N1CCOc2nc(-c3cc(O)cc(F)c3C3CC3)c(F)c3nc(OC[C@@H]4CC(F)(F)CN4C)nc1c23` (single isomer, unassigned) [Compound 49, 3-(10-((R or S)-1-(2-aminopyridin-3-yl)ethyl)-2-(((S)-4,4-difluoro-1-methylpyrrolidin-2-yl)methoxy)-4-fluoro-9,10-dihydro-8H-7-oxa-1,3,6,10-tetraacyclohepta[de]naphthalen-5-yl)-4-cyclopropyl-5-fluorophenol]: the IC50 in experiment [1] was determined as 22 nM; in experiment [2] it was 15 nM; in experiment [3] it was 557 nM.

As to `CC(c1cccnc1N)N1CCOc2nc(-c3cc(O)cc4ccc(F)c(F)c34)c(F)c3nc(OC[C@@H]4CC(F)(F)CN4C)nc1c23` (single isomer, unassigned) [Compound 50, 4-(10-((R or S)-1-(2-aminopyridin-3-yl)ethyl)-2-(((S)-4,4-difluoro-1-methylpyrrolidin-2-yl)methoxy)-4-fluoro-9,10-dihydro-8H-7-oxa-1,3,6,10-tetraazacyclohepta[de]naphthalen-5-yl)-5,6-difluoronaphthalen-2-ol], the IC50 was more than 1000 nM in experiment [1], 916 nM in experiment [2] and more than 1000 nM in experiment [3].

Broadly, the IC50 is the concentration needed to halve the response being measured.
